Experimental data published in patent US8937077B2, “Bicyclic diamines as janus kinase inhibitors” (Merck Sharp & Dohme Corp., priority 2010, dated 2015).
Where two headings read alike, the source gives them in different places.

Molecular target: T1, Jak1 (Homo sapiens, UniProt P23458)
T1 construct: using a recombinant purified GST-tagged catalytic domain for each enzyme; GST; purchased Invitrogen M4290
Assay: Jak Biochemical HTRF Assay (Jak1)
Conditions: recombinant GST-tagged catalytic domain
In short: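 Recombinant GST-tagged Jak1 catalytic domain was preincubated with compound and peptide substrate for 30 min at room temperature, and the reaction was then started with ATP and run 120 min. Buffer contained 2 mM DTT and 0.05% BSA. Read-out was HTRF (665/615 nm) with Eu-pY20 antibody and streptavidin-Dylight, and IC50 values came from 4-parameter fits of percent inhibition.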

[1] = IC50 class, read-out: Jak1 activity
[2] = 31.8 μM ATP, read-out: Representative IC50 values

T1 sequence (P23458 875-1153 limits assumed): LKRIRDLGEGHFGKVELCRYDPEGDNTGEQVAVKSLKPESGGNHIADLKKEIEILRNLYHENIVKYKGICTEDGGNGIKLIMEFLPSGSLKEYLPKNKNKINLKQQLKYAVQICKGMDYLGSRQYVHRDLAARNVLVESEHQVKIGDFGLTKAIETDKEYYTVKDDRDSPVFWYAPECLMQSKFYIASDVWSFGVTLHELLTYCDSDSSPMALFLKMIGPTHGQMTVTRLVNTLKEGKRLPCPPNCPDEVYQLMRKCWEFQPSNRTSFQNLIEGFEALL

Structure (SMILES)	IC50 [1] [nM]	IC50 [2] [nM]	IC50 (Jak1 activity, IC50 class) [nM]
Cn1ncc2cc(CC(=O)N3CCC[C@@H]4[C@H]3CCN4c3ncnc4[nH]ccc34)ccc21 [Example 29-59, 4-{(3aR,7aR)-4-[(1-methyl-1H-indazol-5-yl)acetyl]octahydro-1H-pyrrolo[3,2-b]pyridin-1-yl}-7H-pyrrolo[2,3-d]pyrimidine]	100 to 1000		
COC(=O)c1ccc(CN(C)C(=O)N2CCC[C@@H]3[C@H]2CCN3c2ncnc3[nH]ccc23)cc1 [Example 24, methyl 4-[(methyl{[(3aR,7aR)-1-(7H-pyrrolo[2,3-d]pyrimidin-4-yl)octahydro-4H-pyrrolo[3,2-b]-pyridin-4-yl]carbonyl}amino)methyl]benzoate]	1 to 10		
O=C(OCc1ccccc1F)N1CCC[C@@H]2[C@H]1CCN2c1ncnc2[nH]ccc12 [Example 3-33, 2-fluorobenzyl (3aR,7aR)-1-(7H-pyrrolo[2,3-d]pyrimidin-4-yl)octahydro-4H-pyrrolo[3,2-b]pyridine-4-carboxylate]	1 to 10		
COc1cccc(COC(=O)N2CCCC3C2CCN3c2ncnc3[nH]ccc23)c1 (stereo not drawn) [Example 3-4, 3-methoxybenzyl 1-(7H-pyrrolo[2,3-d]pyrimidin-4-yl)octahydro-4H-pyrrolo[3,2-b]-pyridine-4-carboxylate]	10 to 100		
COCCOC(=O)N1CCC[C@@H]2[C@H]1CCN2c1ncnc2[nH]ccc12 (single isomer, unassigned) [Example 3-35]	10 to 100		
CC(C)(C)OC(=O)N1CCC[C@@H]2[C@H]1CCN2c1ncnc2[nH]ccc12 [Example 11, tert-butyl (3aR,7aR)-1-(7H-pyrrolo[2,3-d]pyrimidin-4-yl)octahydro-4H-pyrrolo[3,2-b]pyridin-4-carboxylate]	100 to 1000		
O=C(CN1CCc2ccccc2C1)N1CCC[C@@H]2[C@H]1CCN2c1ncnc2[nH]ccc12 [Example 29-36, 2-{2-oxo-2-[(3aR,7aR)-1-(7H-pyrrolo[2,3-d]pyrimidin-4-yl)octahydro-4H-pyrrolo[3,2-b]pyridin-4-yl]ethyl}-1,2,3,4-tetrahydroisoquinoline]	10 to 100	30	
O=C(c1ncoc1C1CC1)N1CCC[C@@H]2[C@H]1CCN2c1ncnc2[nH]ccc12 [Example 29-41, 4-{(3aR,7aR)-4-[(5-cyclopropyl-1,3-oxazol-4-yl)carbonyl]octahydro-1H-pyrrolo[3,2-b]pyridin-1-yl}-7H-pyrrolo[2,3-d]pyrimidine]	10 to 100		
O=C(c1ccccc1Cl)N1CCC[C@@H]2[C@H]1CCN2c1ncnc2[nH]ccc12 [Example 29-17, 4-{(3aR,7aR)-4-[(2-chlorophenyl)carbonyl]octahydro-1H-pyrrolo[3,2-b]pyridin-1-yl}-7H-pyrrolo[2,3-d]pyrimidine]	10 to 100		
O=S(=O)(c1ccco1)N1CCC[C@@H]2[C@H]1CCN2c1ncnc2[nH]ccc12 [Example 32-4, 4-[(3aR,7aR)-4-(furan-2-ylsulfonyl)octahydro-1H-pyrrolo[3,2-b]pyridin-1-yl]-7H-pyrrolo[2,3-d]pyrimidine]	10 to 100	14	
O=C(O)c1ccc(CCCN2CCC[C@@H]3[C@H]2CCN3c2ncnc3[nH]ccc23)cc1 [Example 14, 4-{3-[(3aR,7aR)-1-(7H-pyrrolo[2,3-d]pyrimidin-4-yl)octahydro-4H-pyrrolo[3,2-b]pyridin-4-yl]propyl}benzoic acid]	100 to 1000		
O=C(c1nccc2ccccc12)N1CCC[C@@H]2[C@H]1CCN2c1ncnc2[nH]ccc12 [Example 29-47, 1-{[(3aR,7aR)-1-(7H-pyrrolo[2,3-d]pyrimidin-4-yl)octahydro-4H-pyrrolo[3,2-b]pyridin-4-yl]carbonyl}isoquinoline]	10 to 100		
O=C(OCCOCC(F)(F)F)N1CCC[C@@H]2[C@H]1CCN2c1ncnc2[nH]ccc12 (single isomer, unassigned) [Example 3-43]	10 to 100		
O=C(c1cccs1)N1CCC[C@@H]2[C@H]1CCN2c1ncnc2[nH]ccc12 [Example 29-28, 4-[(3aR,7aR)-4-(thiophen-2-ylcarbonyl)octahydro-1H-pyrrolo[3,2-b]pyridin-1-yl]-7H-pyrrolo[2,3-d]pyrimidine]	1 to 10	5	
COCC(=O)N1CCC[C@@H]2[C@H]1CCN2c1ncnc2[nH]ccc12 (single isomer, unassigned) [Example 29-8]	100 to 1000		
O=C(OCCN1CCCC1)N1CCC[C@@H]2[C@H]1CCN2c1ncnc2[nH]ccc12 [Example 3-40, 2-pyrrolidin-1-ylethyl (3aR,7aR)-1-(7H-pyrrolo[2,3-d]pyrimidin-4-yl)octahydro-4H-pyrrolo[3,2-b]pyridine-4-carboxylate]	100 to 1000		
O=C(c1cc2ccccc2[nH]1)N1CCC[C@@H]2[C@H]1CCN2c1ncnc2[nH]ccc12 [Example 29-19, 4-[(3aR,7aR)-4-(1H-indol-2-ylcarbonyl)octahydro-1H-pyrrolo[3,2-b]pyridin-1-yl]-7H-pyrrolo[2,3-d]pyrimidine]			100 to 1000

Structure (SMILES)	IC50 [1] [nM]	IC50 [2] [nM]	IC50 (Jak1 activity, IC50 class) [nM]
O=C(C(O)c1ccccc1)N1CCC[C@@H]2[C@H]1CCN2c1ncnc2[nH]ccc12 (stereo partly drawn) [Example 29-46, 2-oxo-1-phenyl-2-[(3aR,7aR)-1-(7H-pyrrolo[2,3-d]pyrimidin-4-yl)octahydro-4H-pyrrolo[3,2-b]pyridin-4-yl]ethanol]	10 to 100		
O=C(c1ccco1)N1CCC[C@@H]2[C@H]1CCN2c1ncnc2[nH]ccc12 [Example 29-9, 4-[(3 aR,7aR)-4-(furan-2-ylcarbonyl)octahydro-1H-pyrrolo[3,2-b]pyridin-1-yl]-7H-pyrrolo[2,3-d]pyrimidine]	10 to 100		
CO[C@@](C(=O)N1CCC[C@@H]2[C@H]1CCN2c1ncnc2[nH]ccc12)(c1ccccc1)C(F)(F)F [Example 19, (2R)-3,3,3-trifluoro-2-methoxy-2-phenyl-1-[(3aR,7aR)-1-(7H-pyrrolo[2,3-d]pyrimidin-4-yl)octahydro-4H-pyrrolo[3,2-b]pyridine-4-yl]propan-1-one]	10 to 100		
O=C(OCc1cccnc1)N1CCC[C@@H]2[C@H]1CCN2c1ncnc2[nH]ccc12 [Example 3-19, pyridin-3-ylmethyl (3aR,7aR)-1-(7H-pyrrolo[2,3-d]pyrimidin-4-yl)octahydro-4H-pyrrolo[3,2-b]pyridine-4-carboxylate]	100 to 1000		
O=C(OCCn1ccc2ccccc21)N1CCC[C@@H]2[C@H]1CCN2c1ncnc2[nH]ccc12 [Example 3-45, 2-(1H-indol-1-yl)ethyl (3aR,7aR)-1-(7H-pyrrolo[2,3-d]pyrimidin-4-yl)octahydro-4H-pyrrolo[3,2-b]pyridine-4-carboxylate]	10 to 100		
O=C(c1cccc2ccncc12)N1CCC[C@@H]2[C@H]1CCN2c1ncnc2[nH]ccc12 [Example 29-39, 8-{[(3aR,7aR)-1-(7H-pyrrolo[2,3-d]pyrimidin-4-yl)octahydro-4H-pyrrolo[3,2-b]pyridin-4-yl]carbonyl}isoquinoline]	10 to 100		
O=C(c1cn2ccccc2n1)N1CCC[C@@H]2[C@H]1CCN2c1ncnc2[nH]ccc12 [Example 29-25, 4-[(3aR,7aR)-4-(imidazo[1,2-a]pyridin-2-ylcarbonyl)octahydro-1H-pyrrolo[3,2-b]pyridin-1-yl]-7H-pyrrolo[2,3-d]pyrimidine]	100 to 1000		
O=C(OCc1ccccc1)N1CCCC2C1CCN2c1ncnc2[nH]ccc12 (racemic) [Example 1, (3aS,7aS and 3aR,7aR) benzyl 1-(7H-pyrrolo[2,3-d]pyrimidin-4-yl)octahydro-4H-pyrrolo[3,2-b]-pyridine-4-carboxylate]	10 to 100		
O=C(OCCc1ccccn1)N1CCC[C@@H]2[C@H]1CCN2c1ncnc2[nH]ccc12 [Example 3-37, 2-pyridin-2-ylethyl (3aR,7 aR)-1-(7H-pyrrolo[2,3-d]pyrimidin-4-yl)octahydro-4H-pyrrolo[3,2-b]pyridine-4-carboxylate]	10 to 100		
O=C(c1cncc2ccccc12)N1CCC[C@@H]2[C@H]1CCN2c1ncnc2[nH]ccc12 [Example 29-40, 4-{[(3aR,7aR)-1-(7H-pyrrolo[2,3-d]pyrimidin-4-yl)octahydro-4H-pyrrolo[3,2-b]pyridin-4-yl]carbonyl}isoquinoline]	10 to 100		
CN(C)CCNC(=O)c1ccc(COC(=O)N2CCC[C@@H]3[C@H]2CCN3c2ncnc3[nH]ccc23)cc1 [Example 7-4, 4-{[2-(dimethylamino)ethyl]carbamoyl}benzyl (3aR,7aR)-1-(7H-pyrrolo[2,3-d]pyrimidin-4-yl)octahydro-4H-pyrrolo[3,2-b]pyridine-4-carboxylate]	100 to 1000		
O=C(OCC1CC1)N1CCC[C@@H]2[C@H]1CCN2c1ncnc2[nH]ccc12 [Example 3-31, cyclopropylmethyl (3aR,7aR)-1-(7H-pyrrolo[2,3-d]pyrimidin-4-yl)octahydro-4H-pyrrolo[3,2-b]pyridine-4-carboxylate]	10 to 100		
O=C(c1ccccc1)N1CCC[C@@H]2[C@H]1CCN2c1ncnc2[nH]ccc12 [Example 29-34, 4-[(3aR,7aR)-4-(phenylcarbonyl)octahydro-1H-pyrrolo[3,2-b]pryidin-1-yl]-7H-pyrrolo[2,3-d]pyrimidine]	10 to 100		
COC(=O)C1CC1CCOC(=O)N1CCC[C@@H]2[C@H]1CCN2c1ncnc2[nH]ccc12 (stereo partly drawn) [Example 3-29, 2-[2-(methoxycarbonyl)cyclopropyl]ethyl (3aR,7aR)-1-(7H-pyrrolo[2,3-d]pyrimidin-4-yl)octahydro-4H-pyrrolo[3,2-b]pyridine-4-carboxylate]	10 to 100		
O=C(OCc1ccc(CO)cc1)N1CCC[C@@H]2[C@H]1CCN2c1ncnc2[nH]ccc12 [Example 10, 4-(hydroxymethyl)benzyl (3aR,7aR)-1-(7H-pyrrolo[2,3-d]pyrimidin-4-yl)octahydro-4H-pyrrolo[3,2-b]pyridine-4-carboxylate]	100 to 1000		
N#Cc1ccc(C(=O)N2CCC[C@@H]3[C@H]2CCN3c2ncnc3[nH]ccc23)cc1 [Example 29-29, 4-{[(3aR,7aR)-1-(7H-pyrrolo[2,3-d]pyrimidin-4-yl)octahydro-4H-pyrrolo[3,2-b]pyridin-4-yl]carbonyl}benzonitrile]	10 to 100		
